Measured values as given in patent publication US20070059632A1, “Method of manufacturing a semiconductor device” (priority 2003, published 2007).

Experiments:
Format in all cases: physicochemical
[1] = Inhibition of dissolution in alkali developing solution; parameters: key: A: no change was visually noticed in the state of film; C: the surface was roughened or a part of the film was lost because of dissolution; details: resist film immersed in 2.38% aqueous solution of TMAH for 3 min
Experimental: (3) Inhibition of Dissolution in Alkali Developing Solution
The resist film formed in the evaluation 2 was immersed in a developing solution (2.38% aqueous solution of TMAH) for 3 min. The results were rated as “A” when no change was visually noticed in the state of film, and “C” when the surface was roughened or a part of the film was lost because of dissolution.

Alkali developability = assay: Alkali developability; parameters: key: A: the resist film dissolved completely and disappeared; C: the resist film remained not dissolved even in a slight amount; details: tested on the corresponding polyphenol compound A before introducing the acid-dissociating group; film immersed in 2.38% aqueous TMAH for 10 s
Experimental: (5) Alkali Developability
A polyphenol compound A corresponding to each compound before introducing the acid-dissociating functional group was examined for its developability with an alkali developing solution.
A 10% by weight solution of each polyphenol compound A in PGMEA was spin-coated using a spin coater, to form a resist film of about 0.2 μm thick. After heating on a hot plate for 3 min at 110° C., the resist film was immersed in a 2.38% aqueous solution of TMAH for 10 s. The results were rated as “A” when the resist film dissolved completely and disappeared, and “C” when the resist film remained not dissolved even in a slight amount.

[2] = Solubility of compound in safety solvent; details: safety solvent (PGMEA or EL) at 23° C.
Experimental: (1) Solubility of Compound in Safety Solvent
Each compound was tested for its solubility in safety solvent (PGMEA or EL) at 23° C. The solubility was rated as “A” when dissolved in an amount of 5% by weight or more, “B” when dissolved in an amount of 0.1% by weight or more but less than 5% by weight, and “C” when not dissolved in an amount of 0.1% by weight or more.

| Compound | (3) Inhibition of dissolution in developing solution [1] | (5) Alkali developability (Alkali developability) | (1) Solubility in safety solvent [2] |
| --- | --- | --- | --- |
| CCOC(C)Oc1ccc(C(C)(c2ccc(O)c(C3CCCCC3)c2)c2ccc3ccccc3c2)cc1C1CCCCC1 (stereo not drawn) [Compound 5-7] | A | A | A (dissolved in an amount of 5% by weight or more) |
| CC(C)(C)OC(=O)Oc1ccc(C(C)(c2ccc(O)cc2)c2ccc3ccccc3c2)cc1 (stereo not drawn) [Compound 5-8] | A | A | A (dissolved in an amount of 5% by weight or more) |
| CC(C)(C)OC(=O)Oc1ccc(C(c2ccc(OC(=O)OC(C)(C)C)cc2)c2ccc(OC(=O)OC(C)(C)C)cc2)cc1 [Compound 14-3, reference compound] | A | A | A (dissolved in an amount of 5% by weight or more) |
| CC(C)(C)OC(=O)Oc1cc(C2(c3ccc(OC(=O)OC(C)(C)C)c(OC(=O)OC(C)(C)C)c3)c3ccccc3-c3ccccc32)ccc1O [Compound 7-2] | A | A | A (dissolved in an amount of 5% by weight or more) |
| CC(C)(C)OC(=O)Oc1ccc(-c2cc(-c3ccc(OC(=O)OC(C)(C)C)cc3)cc(-c3ccc(OC(=O)OC(C)(C)C)cc3)c2)cc1 [Compound 14-4, reference compound] | A | A | A (dissolved in an amount of 5% by weight or more) |
| CCOC(C)Oc1ccc2c(c1)Oc1cc(O)ccc1C21c2ccccc2-c2ccccc21 (stereo not drawn) [Compound 11-3] | A | A | A (dissolved in an amount of 5% by weight or more) |
| Cc1cc(C(C)(c2ccc(O)c(C)c2)c2ccc3ccccc3c2)ccc1O [Compound 14-5, 1-(2-naphthyl)-1,1-bis(3-methyl-4-hydroxyphenyl)ethane, reference compound] | C | A | A (dissolved in an amount of 5% by weight or more) |
| CC(C)(C)OC(=O)Oc1ccc(C2(c3ccc(OC(=O)OC(C)(C)C)cc3)CCCCC2)cc1 [Compound 14-2, reference compound] | – | A | C (not dissolved in an amount of 0.1% by weight or more) |
| Cc1cc(C(C)(c2ccc(OC(C)OC3CCCCC3)c(C)c2)c2ccc3ccccc3c2)ccc1O (stereo not drawn) [Compound 5-5] | A | A | A (dissolved in an amount of 5% by weight or more) |
| CCCCOC(=O)Oc1ccc2c(c1)Oc1cc(OC(=O)OCCCC)ccc1C2c1ccc(-c2ccccc2)cc1 [Compound 10-1] | A | A | A (dissolved in an amount of 5% by weight or more) |
| CCOC(C)Oc1ccc2c(c1)Oc1cc(O)ccc1C21Cc2cccc3cccc1c23 (stereo not drawn) [Compound 12-1] | A | A | A (dissolved in an amount of 5% by weight or more) |
| Cc1cc(C(C)(c2ccc(OC(=O)OC(C)(C)C)c(C)c2)c2ccc3ccccc3c2)ccc1O (stereo not drawn) [Compound 5-2] | A | A | A (dissolved in an amount of 5% by weight or more) |
| Cc1cc(C(C)(c2ccc(OC3CCCCO3)c(C)c2)c2ccc3ccccc3c2)ccc1O (stereo not drawn) [Compound 5-6] | A | A | A (dissolved in an amount of 5% by weight or more) |
| CCOC(C)Oc1ccc(C2(c3ccc(O)c(-c4ccccc4)c3)Cc3cccc4cccc2c34)cc1-c1ccccc1 (stereo not drawn) [Compound 8-5] | A | A | A (dissolved in an amount of 5% by weight or more) |
| O=C1c2cccc3cccc(c23)C1(c1ccc(O)cc1)c1ccc(OC2CCCCO2)cc1 (stereo not drawn) [Compound 8-2] | A | A | A (dissolved in an amount of 5% by weight or more) |
| CC(C)(C)OC(=O)Oc1ccc2c(c1)Oc1cc(OC(=O)OC(C)(C)C)ccc1C21c2ccccc2-c2ccccc21 [Compound 11-2] | A | A | B (dissolved in an amount of 0.1% by weight or more but less than 5% by weight) |
| CC(C)(C)OC(=O)Cc1cc(C(C)(c2ccc(OC(=O)OC(C)(C)C)c(OC(=O)OC(C)(C)C)c2)c2ccc3ccccc3c2)ccc1OC(=O)OC(C)(C)C (stereo not drawn) [Compound 5-3] | A | A | A (dissolved in an amount of 5% by weight or more) |
| CCOC(C)Oc1ccc(C2(c3ccc(O)c(C4CCCCC4)c3)Cc3cccc4cccc2c34)cc1C1CCCCC1 (stereo not drawn) [Compound 8-3] | A | A | A (dissolved in an amount of 5% by weight or more) |
| CC(C)(C)OC(=O)Oc1ccc(C2(c3ccc(OC(=O)OC(C)(C)C)c(OC(=O)OC(C)(C)C)c3)c3ccccc3-c3ccccc32)cc1OC(=O)OC(C)(C)C [Compound 7-1] | A | – | B (dissolved in an amount of 0.1% by weight or more but less than 5% by weight) |
| Cc1cc(C(C)(c2ccc(OC(=O)OC(C)(C)C)c(C)c2)c2ccc3ccccc3c2)ccc1OC(=O)OC(C)(C)C [Compound 5-1] | A | A | A (dissolved in an amount of 5% by weight or more) |
| Oc1ccc(C2(c3ccc(OC4CCCCO4)cc3)c3ccccc3-c3ccccc32)cc1 (stereo not drawn) [Compound 7-4] | A | A | A (dissolved in an amount of 5% by weight or more) |
| CC(C)(C)OC(=O)Oc1ccc2c(c1)Oc1cc(O)ccc1C21c2ccccc2-c2ccccc21 [Compound 11-1] | A | A | A (dissolved in an amount of 5% by weight or more) |
| CC(C)(C)OC(=O)Oc1ccc(C(c2ccc(O)cc2)c2cccc3ccccc23)cc1 (stereo not drawn) [Compound 5-9] | A | A | A (dissolved in an amount of 5% by weight or more) |
| O=C1c2ccccc2C(c2ccc(O)cc2)(c2ccc(OC3CCCCO3)cc2)c2ccccc21 (stereo not drawn) [Compound 7-5] | A | A | A (dissolved in an amount of 5% by weight or more) |
| Oc1ccc2c(c1)Oc1cc(OC3CCCCO3)ccc1C2c1ccc(-c2ccccc2)cc1 (stereo not drawn) [Compound 10-2] | A | A | A (dissolved in an amount of 5% by weight or more) |
| CC(C)(C)OC(=O)Oc1ccc(C(C)(C)c2ccc(OC(=O)OC(C)(C)C)cc2)cc1 [Compound 14-1, reference compound] | – | A | C (not dissolved in an amount of 0.1% by weight or more) |
| Oc1ccc(C(c2ccc(OC3CCCCO3)cc2)c2ccc(-c3ccccc3)cc2)cc1 (stereo not drawn) [Compound 6-1] | A | A | A (dissolved in an amount of 5% by weight or more) |
| CC1(c2ccc3ccccc3c2)c2ccc(O)cc2Oc2cc(OC3CCCCC3)ccc21 (stereo not drawn) [Compound 9-1] | A | A | A (dissolved in an amount of 5% by weight or more) |
